{"source": "patent EP2233566A1", "about": "“Generation of pancreatic progenitor cells” (Vrije Universiteit Brussel, priority 2009, dated 2010)", "tested_on": "human embryonic stem cells-derived definitive endoderm", "assay": "Hepatic differentiation (AFP / albumin expression) of hES cell-derived definitive endoderm", "assay_type": "cell-based", "procedure": "Cells were split in 4-well plates and differentiation performed in five stages as previously published (D'Amour et al. 2006 (supra); Table 2). Briefly, for DE induction 80% confluent cultures were washed with PBS and treated with 100 ng/ml Activin-A (RnD Systems) and 25 ng/ml Wnt3a (RnD Systems) for 24h in RPMI (Invitrogen) supplemented with antibiotics and Glutamax; then they were further treated with 100 ng/ml Activin-A in RPMI containing 0.2% FBS (PAA Laboratories) for 48h. PGT stage cells were treated with 50 ng/ml FGF10 (RnD Systems), 250 nM KAAD-Cyclopamine (Calbiochem) and 2% FBS in RPMI medium for 3 or 4 days. In the PFG stage (3-4 days), the medium was changed to DMEM supplemented with Glutamax, antibiotics, 1% B27 (Invitrogen), 2 µM retinoic acid (RA, Sigma), FGF10 and KAAD-Cyclopamine. […]\nAt each stage, cultures were washed with PBS, fixed for 10-15 min at room temperature in 4% formaldehyde and rinsed several times. […] Immunocytochemistry was performed for the detection of Hnf1B using a donkey horse radish peroxidase (HRP)-conjugated secondary antibody and detected by the ABC complex (Dako) as previously described in Mfopou et al. 2007 (Stem Cells 25: 1156-1165). […]"}
{"smiles": "Cc1c[nH]c(/C=C2\\C(=O)Nc3ccccc32)c1CCC(=O)O", "note": "[SU5402]", "values": [{"measurement": "albumin expression by the pancreas endoderm stage", "setting": "SU5402 (250 nM) alone", "value": "attenuates albumin expression"}, {"measurement": "reduced hepatic differentiation", "setting": "SU5402 added in PGT and PFG stages (FGF signalling inhibition)", "value": "at least 50%"}]}
